Reference: patent publication US6605611B2, “Base analogues” (Nycomed Amersham PLC, priority 1997, dated 2003)

How the values were obtained:
Type in all cases: biochemical
[1] = target: terminal deoxynucleotidyl transferase (Bos taurus, UniProt P06526); assay: oligonucleotide tailing reaction with terminal deoxynucleotidyl transferase; conditions: 32 μM nucleotide, 25 U terminal deoxynucleotidyl transferase, 15 mer primer, 90 minutes at 37° C.
Text: 1-(2′-deoxy-5′-triphospho-β-D-ribofuranosyl)piperidino[2,3-d]pyrimidine-2(1H)-one (1.6), 6-methylamine-3-(5-triphospho-2-deoxy-β-D-erythro-pentofuranosyl)furano[2,3-d]pyrimidin-2-one) (3.3a) and 5-FAM-(6-methylamine-3-(5-triphospho-2-deoxy-β-D-erythro-pentofuranosyl)furano[2,3-d]pyrimidin-2-one) (3.3b), 6-methyl-N-(6-amino)-caproamide-3-(5-triphospho-2-deoxy-β-D-erythro-pentofuranosyl)furano[2,3-d]pyrimidin-2-one (4.3a) and 5-FAM-(6-methyl-N-(6-amino)-caproamide-3-(5-triphospho-2-deoxy-β-D-erythro-pentofuranosyl)furano[2,3-d]pyrimidin-2-one) (4.3b), 6-methylamine-3-(5-triphospho-2-deoxy-β-D-erythro-pentofuranosyl)pyrrolo[2,3-d]pyrimidin-2-one) (8.1), 6-methyl-N-(6-amino)-caproamide-3-(5-triphospho-2-deoxy-β-D-erythro-pentofuranosyl)pyrrolo[2,3-d]pyrimidin-2-one (10.1a), and the FAM and Cy5 of (10.1a, e.g. 10.1b and 10.1c) as substrates for terminal deoxynucleotidyl transferase. In order to test the ability of compounds (1.6), (3.3a), (3.3b), (4.3a), (4.3b), (8.1), (10.1a), (10.1b) and (10.1c) to be accepted by terminal deoxynucleotidyl transferase as a substrate, an oligonucleotide tailing reaction was performed.
A 15 mer primer (sequence: 5′ TGC ATG TGC TGG AGA 3′) and 8 to 32 base oligonucleotide markers were 5′ end labelled with [γ^33P] ATP and T4 polynucleotide kinase. Reactions were boiled for 5 minutes after labelling to remove any PNK activity. Four picomoles of the labelled primer, 25 U terminal deoxynucleotidyl transferase and 32 μM dATP, dCTP, dGTP, dTTP or compounds (1.6), (3.3a), (3.3b), (4.3a), (4.3b), (8.1), (10.1a), (10.1b) and (10.1c) were incubated in 25 μl 100 mM cacodylate buffer pH7.2, 2 mM CoCl2 and 0.2 mM 2-mercaptoethanol for 90 minutes at 37° C. The reactions were stopped by the addition of formamide stop solution and the reaction products run on a 19% polyacrylamide 7M urea gel with the labelled markers. Autoradiography using Biomax film was carried out on the dry gel.

[2] = test system: exonuclease free Klenow fragment of DNA polymerase I (EFK); assay: primer extension assay, EFK, Example 14; conditions: 80 μM (1.6), with or without 4 μM dNTPαS, 37° C. for 3 minutes
Experimental: A primer extension assay was used to evaluate compound (1.6) as a substrate for exonuclease free Klenow fragment of DNA polymerase I (EFK). The assay used a ^33P 5′ end labelled 15 mer primer hybridised to a 24 mer template. The sequences of the primer and template are:
One picomole ^33P labelled primer was hybridised to 2 picomoles of template in ×2 Klenow buffer. To this was added either 4 μM dNTPαS or 80 μM (1.6) or a mixture of 4 μM dNTPαS 80 μM (1.6). One unit EFK and 2 mU inorganic pyrophosphatase were used per reaction. Primer alone, primer plus template plus enzyme controls were also carried out. The reactions were incubated at 37° C. for 3 minutes. Reactions were then stopped by the addition of formamide I EDTA stop solution. Reaction products were separated on a 19% polyacrylamide 7M urea gel and the product fragments sized by comparison with a ^33P labelled 8 to 32 base oligonucleotide ladder after exposure to Kodak Biomax autoradiography film.

[3] = test system: exonuclease free Klenow fragment of DNA polymerase I (EFK); assay: primer extension assay, EFK, Templates 1 and 2, Example 13; conditions: for substrate for the polymerase (EFK), incorporation: 20 μM total nucleotide, 37° C. for 3 minutes, Template 1 or Template 2; for substrate quality compared with the analogue with the shorter linker arm: EFK primer extension, 20 μM
Experimental: A primer extension assay was used to evaluate compounds (3.3a), (3.3b), (4.3a),(4.3b) and (8.1) as substrates for exonuclease free Klenow fragment of DNA polymerase I (EFK). The assay used a ^33P 5′ end labelled 15 mer primer hybridised to one of two 24 mer templates. The sequences of the primer and templates are:
(§1) One picomole ^33P labelled primer was hybridised to 2 picomoles of template in ×2 Klenow buffer. To this was added either 20 μM dCTP or 20 μM (3.3a) or 20 μM (3.3b) or 20 μM (4.3a) or 20 μM (4.3b) or 20 μM (8.1) or mixtures of dCTP and compound (3.3a) or (3.3b) or (4.3a) or (4.3b) or (8.1) keeping the total nucleotide concentration fixed at 20 μM. One unit EFK and 2 mU inorganic pyrophosphatase were used per reaction. Primer alone, primer plus template plus enzyme controls were also carried out. The reactions were incubated at 37° C. for 3 minutes. Reactions were then stopped by the addition of formamide/EDTA stop solution. Reaction products were separated on a 19% polyacrylamide 7M urea gel and the product fragments sized by comparison with a ^33P labelled 8 to 32 base oligonucleotide ladder after exposure to Kodak Biomax autoradiography film.

[4] = test system: AMV reverse transcriptase; assay: 1st strand cDNA synthesis, incorporation monitored by 33P-dATP spike, TLC and gel
Experimental: Incorporation of compound (10.1a) into 1st strand cDNA was carried out using a balance of dCTP such that the total concentration of (10.1a) and dCTP was equivalent to each of the other three dNTP concentrations.
(10.1a) was used at three different percentages
These reactions were compared with reactions including Cy5 labelled dCTP. All reactions were monitored by carrying out the reaction in duplicate and monitoring one of the duplicates with a spike of ^33P-dATP.
1 μl ^33P-dATP-active samples only
1 μl AMV reverse transcriptase 20 U/μl
Incubate at 42° C. for 2½ hours
The cDNA reactions were monitored by TLC as follows
1 μl of sample was spotted onto PEI cellulose TLC plates and run in 1.25M Potassium phosphate buffer
Samples were then purified by Qiagen column and eluted in 50 μl of water. The active cDNA products were analysed on a 6% polyacrylamide gel
The gel was then covered in Saran wrap and exposed to phosphorscreen for 1 hour. Phosphorscreen analysis was carried out on the Molecular Dynamics Storm 860 instrument.

[5] = test system: exonuclease free Klenow fragment of DNA polymerase I (EFK); assay: primer extension assay, EFK, Example 12; conditions: 20 μM total nucleotide, 37° C. for 3 minutes, 24 mer template
Experimental: A primer extension assay was used to evaluate compounds (10.1a), (10.1b) and (10.1c) as substrates for exonuclease free Klenow fragment of DNA polymerase I (EFK). The assay used a ^33P 5′ end labelled 15 mer primer hybridised to a 24 mer template. The sequences of the primer and template are:
as §1, with “μM (10.1a)” for “μM (3.3a)”, “μM (10.1b)” for “μM (3.3b)”, “μM (10.1c)” for “μM (4.3a) or 20 μM (4.3b) or 20 μM (8.1)”, “compound (10.1a)” for “compound (3.3a)”, “or compound (10.1b)” for “or (3.3b)”, “or compound (10.1c)” for “or (4.3a) or (4.3b) or (8.1)”

[6] = target: Thermus aquaticus DNA polymerase (Thermus aquaticus, UniProt P19821); assay: incorporation into arabidopsis DNA by PCR; conditions: 5% to 50% (10.1a), balance dCTP, 35 cycles
Experimental: Incorporation of (10.1a) into arabidopsis DNA by PCR was carried out as follows:
The (10.1a) was used in the PCR at various percentages with a balance of dCTP such that the total concentration of (10.1a) and dCTP was equivalent to each of the other three base dNTP's. The percentages of (10.1a) used were:
After PCR, the samples were purified by Qiagen column and analysed by 1% agarose gel.

Sequence of terminal deoxynucleotidyl transferase (P06526 whole entry): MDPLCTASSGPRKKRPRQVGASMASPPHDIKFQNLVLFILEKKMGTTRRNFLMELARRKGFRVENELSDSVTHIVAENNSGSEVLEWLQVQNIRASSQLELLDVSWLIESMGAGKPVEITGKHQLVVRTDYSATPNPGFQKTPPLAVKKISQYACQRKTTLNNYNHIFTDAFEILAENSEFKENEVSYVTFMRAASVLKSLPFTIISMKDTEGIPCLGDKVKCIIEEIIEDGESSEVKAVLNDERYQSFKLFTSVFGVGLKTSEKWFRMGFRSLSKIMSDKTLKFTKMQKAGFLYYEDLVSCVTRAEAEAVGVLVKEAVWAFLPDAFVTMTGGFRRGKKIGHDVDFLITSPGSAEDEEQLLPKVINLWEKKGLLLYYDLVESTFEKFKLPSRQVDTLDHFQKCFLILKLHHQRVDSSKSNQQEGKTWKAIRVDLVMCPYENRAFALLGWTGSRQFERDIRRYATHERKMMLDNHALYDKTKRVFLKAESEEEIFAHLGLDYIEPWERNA
Sequence of Thermus aquaticus DNA polymerase (P19821 whole entry): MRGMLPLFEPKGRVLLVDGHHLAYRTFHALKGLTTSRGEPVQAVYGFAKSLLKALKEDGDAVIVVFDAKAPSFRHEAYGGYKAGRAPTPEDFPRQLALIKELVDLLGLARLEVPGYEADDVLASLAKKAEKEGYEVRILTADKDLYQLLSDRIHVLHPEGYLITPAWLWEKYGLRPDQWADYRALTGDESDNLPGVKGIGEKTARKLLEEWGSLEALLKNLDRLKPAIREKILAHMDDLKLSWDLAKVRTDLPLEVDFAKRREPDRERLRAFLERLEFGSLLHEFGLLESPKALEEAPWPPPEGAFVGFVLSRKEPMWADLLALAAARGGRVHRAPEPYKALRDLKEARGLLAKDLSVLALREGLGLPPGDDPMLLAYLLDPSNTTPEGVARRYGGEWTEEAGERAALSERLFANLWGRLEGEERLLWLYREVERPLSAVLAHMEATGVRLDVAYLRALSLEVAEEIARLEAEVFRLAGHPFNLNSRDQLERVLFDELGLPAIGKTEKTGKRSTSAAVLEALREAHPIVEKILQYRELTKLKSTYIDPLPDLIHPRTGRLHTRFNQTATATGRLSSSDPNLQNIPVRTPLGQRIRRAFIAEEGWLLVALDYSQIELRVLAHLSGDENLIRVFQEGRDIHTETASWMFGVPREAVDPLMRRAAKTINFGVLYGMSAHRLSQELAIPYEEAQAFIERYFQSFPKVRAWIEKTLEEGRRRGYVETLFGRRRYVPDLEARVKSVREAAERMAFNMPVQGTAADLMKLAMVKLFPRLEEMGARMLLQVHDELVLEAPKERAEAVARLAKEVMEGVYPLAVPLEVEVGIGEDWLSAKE

| Compound | 3′ tail length [1] | substrate for the polymerase (EFK), incorporation [3] | further results |
| --- | --- | --- | --- |
| O=c1nc2c(cn1C1CC(O)C(COP(=O)(O)OP(=O)(O)OP(=O)(O)O)O1)CCCN2 [Compound 1.6, 1-(2′-deoxy-5′-triphospho-β-D-ribofuranosyl)piperidino[2,3-d]pyrimidine-2(1H)-one] | equivalent to those produced by dCTP at the same concentration | – | substrate for EFK, incorporation in place of dCTP [2]: a substrate for EFK and that it was efficiently incorporated in place of dCTP |
| Cy5-(6-methyl-N-(6-amino)-caproamide-3-(triphospho-2-2deoxy-β-D-erythro-pentofuranosyl)pyrrolo[2,3-d]pyrimidin-2-one [Compound 10.1c] | greater than 30 bases | – | – |
| O=C(NCc1cc2cn([C@H]3C[C@H](O)[C@@H](COP(=O)(O)OP(=O)(O)OP(=O)(O)O)O3)c(=O)nc2o1)c1ccc2c(c1)C(=O)OC21c2ccc(O)cc2Oc2cc(O)ccc21 [Compound 3.3b, 5-Carboxyfluoresceinyl-(6-methylamine-3-(5-triphospho-2-deoxy-β-D-erythro-pentofuranosyl)furano[2,3-d]pyrimidin-2-one)] | – | not a substrate for the polymerase using either of the Templates | – |
| NCCCCCC(=O)NCc1cc2cn([C@H]3C[C@H](O)[C@@H](COP(=O)(O)OP(=O)(O)OP(=O)(O)O)O3)c(=O)nc2[nH]1 [Compound 10.1a, 6-methyl-N-(6-amino)-caproamide-3-(5-triphospho-2-deoxy-β-D-erythro-pentofuranosyl)pyrrolo[2,3-d]pyrimidin-2-one] | 7-8 bases | – | 33P-dATP Incorporation (TLC) ([4]; 50% (10.1a), balance dCTP): 23.2%; 33P-dATP Incorporation (TLC) ([4]; 75% (10.1a), balance dCTP): 16.5%; 33P-dATP Incorporation (TLC) ([4]; 100% (10.1a), no dCTP): 11.5%; substrate quality compared with the analogue with the shorter linker arm [3]: better substrate than (8.1); substrate for the polymerase (EFK), incorporation in place of dCTP [5]: surprisingly good substrate; formation of PCR product, agarose gel analysis [6]: resulted in the formation of PCR product |
| O=C(CCCCCNC(=O)c1ccc2c(c1)C(=O)OC21c2ccc(O)cc2Oc2cc(O)ccc21)NCc1cc2cn([C@H]3C[C@H](O)[C@@H](COP(=O)(O)OP(=O)(O)OP(=O)(O)O)O3)c(=O)nc2o1 [Compound 4.3b, 5-FAM-(6-methyl-N-(6-amino)-caproamide-3-(5-triphospho-2-deoxy-β-D-erythro-pentofuranosyl)furano[2,3-d]pyrimidin-2-one)] | 9-14 bases | only incorporated in reactions using Template 2 | – |
| NCc1cc2cn([C@H]3C[C@H](O)[C@@H](COP(=O)(O)OP(=O)(O)OP(=O)(O)O)O3)c(=O)nc2o1 [Compound 3.3a] | – | not a substrate for the polymerase | – |
| NCCCCCC(=O)NCC=Cc1cn([C@H]2C[C@H](O)[C@@H](COP(=O)(O)OP(=O)(O)OP(=O)(O)O)O2)c(=O)nc1N [5-allylaminocaproamide dCTP, reference compound] | – | – | incorporation by the polymerase ([3]; under similar assay conditions): did not show any incorporation |
| NCCCCCC(=O)NCc1cc2cn([C@H]3C[C@H](O)[C@@H](COP(=O)(O)OP(=O)(O)OP(=O)(O)O)O3)c(=O)nc2o1 [Compound 4.3a, 6-Methyl-N-(6-amino)-caproamide-3-(5-triphospho-2-deoxy-β-D-erythro-pentofuranosyl)furano[2,3-d]pyrimidin-2-one] | 7-9 bases | a substrate for the polymerase again being able to replace dCTP | substrate quality compared with the analogue with the shorter linker arm [3]: better substrate than (3.3a) |
| NCc1cc2cn([C@H]3C[C@H](O)[C@@H](COP(=O)(O)OP(=O)(O)OP(=O)(O)O)O3)c(=O)nc2[nH]1 [Compound 8.1] | – | a substrate for the polymerase being able to substitute for dCTP | – |
| O=C(CCCCCNC(=O)c1ccc2c(c1)C(=O)OC21c2ccc(O)cc2Oc2cc(O)ccc21)NCc1cc2cn([C@H]3C[C@H](O)[C@@H](COP(=O)(O)OP(=O)(O)OP(=O)(O)O)O3)c(=O)nc2[nH]1 [Compound 10.1b, 5-FAM-(6-methyl-N-(6-amino)-caproamide-3-(5-triphospho-2-deoxy-β-D-erythro-pentofuranosyl)pyrrolo[2,3-d]pyrimidin-2-one)] | 18-24 bases | – | – |
